Test results reported in US8343968B2, “Case of renin inhibitors” (Merck Canada Inc., priority 2007, dated 2013).

How the values were obtained:
[1] = biological target: T1, human recombinant renin (Homo sapiens, UniProt P00797); assay: Inhibition of human recombinant renin (buffer), enzymatic in vitro assay with Ang I EIA; format: biochemical; conditions: assay buffer PBS, 1 mM EDTA, 0.1% BSA; human recombinant renin 40 pM
T1 sequence (P00797 67-406): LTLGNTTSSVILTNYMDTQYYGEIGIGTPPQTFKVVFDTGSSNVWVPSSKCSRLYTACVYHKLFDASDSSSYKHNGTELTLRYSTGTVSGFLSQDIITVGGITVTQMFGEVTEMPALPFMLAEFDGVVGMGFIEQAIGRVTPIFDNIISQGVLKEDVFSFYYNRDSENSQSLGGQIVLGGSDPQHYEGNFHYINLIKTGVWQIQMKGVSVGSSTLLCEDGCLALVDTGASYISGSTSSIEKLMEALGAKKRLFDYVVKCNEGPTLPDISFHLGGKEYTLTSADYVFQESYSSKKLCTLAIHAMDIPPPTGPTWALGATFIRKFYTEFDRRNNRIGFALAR
Method: Inhibition of Human Recombinant Renin
The enzymatic in vitro assay was performed in 384-well polypropylene plates (Nunc). The assay buffer consisted of PBS (Gibco BRL) including 1 mM EDTA and 0.1% BSA. The reaction mixture were composed of 47.5 μL per well of an enzyme mix and 2.5 μL of renin inhibitors in DMSO. The enzyme mix was premixed at 4° C. and consists of the following components: • human recombinant renin (40 pM) • synthetic human angiotensin(1-14) (0.5 μM) • hydroxyquinoline sulfate (1 mM) The mixtures were then incubated at 37° C. for 3 h. The enzyme reaction was stopped by placing the reaction plate on wet ice.
(§1) To determine the enzymatic activity and its inhibition, the accumulated Ang I was detected by an enzyme immunoassay (EIA) in 384-well plates (Nunc). 5 μL of the reaction mixture or standards were transferred to immuno plates which were previously coated with a covalent complex of Ang I and bovine serum albumin (Ang I-BSA). 75 μL of Ang I-antibodies in assay buffer above including 0.01% Tween 20 were added and the plates were incubated at 4° C. overnight.
An alternative protocol could be used by stopping the enzymatic reaction with 0.02N final concentration of HCl. 5 μL of the reaction mixture or standards were transferred to immuno plates and 75 μL of Ang I-antibodies in assay buffer above including 0.01% Tween 20 were added and the plates were incubate at RT for 4 h.
The plates were washed 3 times with PBS including 0.01% Tween 20, and then incubated for 2 h at RT with an anti rabbit-peroxidase coupled antibody (WA 934, Amersham).

[2] = biological target: T2, renin in human plasma (human recombinant renin) (Homo sapiens, UniProt P00797); assay: Inhibition of renin in human plasma, enzymatic in vitro assay with Ang I EIA; format: biochemical; conditions: human plasma from 10 normal donors; human recombinant renin 3 pM
T2 construct: host or cells: human plasma from 10 normal donors as matrix
T2 sequence (P00797 67-406): T1 sequence (P00797 67-406)
Method: Inhibition of Renin in Human Plasma
The enzymatic in vitro assay was performed in 384-well polypropylene plates (Nunc). The assay buffer consisted of PBS (Gibco BRL) including 1 mM EDTA and 0.1% BSA. The reaction mixture was composed of 80 μL per well of human plasma, enzyme, Ang I-antibodies mix and 5 μL of renin inhibitors in DMSO. The human plasma mix was premixed at 4° C. and consists of • human plasma from 10 normal donors • human recombinant renin (3 pM) • Ang I-antibodies. The mixtures were then incubated at 37° C. for 2 h.
as §1, with “10” for “5”, “70” for “75”, “μL” for “μL of Ang I-antibodies in”, “buffer” for “buffer above including 0.01% Tween 20”, “overnight. The plates were washed 3 times with PBS including 0.01% Tween 20, and then incubated for 2 h at RT with an anti rabbit-peroxidase coupled antibody (WA 934, Amersham).” for “overnight.”

Compound: COCCCc1cc(CN(C(=O)[C@H]2CNCC[C@@H]2c2ccc(OCCOc3c(Cl)cc(C)cc3Cl)cc2)C2CC2)cc(OCC2(CC(=O)O)CC2)c1 [Example 12, (1-{[3-({Cyclopropyl[((3R,4S)-4-{4-[2-(2,6-dichloro-4-methylphenoxy)ethoxy]-phenyl}piperidin-3-yl)carbonyl]amino}methyl)-5-(3-methoxypropyl)phenoxy]-methyl}cyclopropyl)acetic Acid]
- IC50 [1]: 0.036 nM
- IC50 [2]: 5.6 nM

Compound: COCCCc1cc(CN(C(=O)[C@H]2CNCC[C@@H]2c2ccc(OCCOc3c(Cl)cc(C)cc3Cl)cc2)C2CC2)cc(OCC2(Cc3nn[nH]n3)CC2)c1 [Example 14, (3R,4S)—N-Cyclopropyl-4-{4-[2-(2,6-dichloro-4-methylphenoxy)ethoxy]phenyl}-N-(3-(3-methoxypropyl)-5-{[1-(2H-tetrazol-5-ylmethyl)cyclopropyl]methoxy}benzyl)-piperidine-3-carboxamide]
- IC50 [1]: 0.03 nM
- IC50 [2]: 2.3 nM

Compound: CCOC(=O)[C@@H]1C[C@H]1COc1cc(CCCOC)cc(CN(C(=O)[C@H]2CNCC[C@@H]2c2ccc(OCCOc3c(Cl)cc(C)cc3Cl)cc2)C2CC2)c1 [Example 1, Ethyl (1R,2R)-2-{[3-({cyclopropyl[((3R,4S)-4-{4-[2-(2,6-dichloro-4-methylphenoxy)-ethoxy]phenyl}piperidin-3-yl)carbonyl]amino}methyl)-5-(3-methoxypropyl)phen-oxy]methyl}cyclopropanecarboxylate]
- IC50 [1]: 0.064 nM
- IC50 [2]: 11 nM

Compound: COCCCc1cc(CN(C(=O)[C@H]2CNCC[C@@H]2c2ccc(OCCOc3c(Cl)cc(C)cc3Cl)cc2)C2CC2)cc(OC[C@@H]2C[C@H]2C(=O)O)c1 [Example 2]
- IC50 [1]: 0.027 nM
- IC50 [2]: 1.1 nM
